Data reported in article PMC6407587, “Inhibition potential of phenolic constituents from the aerial parts of Tetrastigma hemsleyanum against soluble epoxide hydrolase and nitric oxide synthase” (Journal of Enzyme Inhibition and Medicinal Chemistry, 2019).
Where two headings read alike, the source gives them in different places.

Legend:
[1] = test system: LPS-induced NO production in macrophage RAW 264.7 cells (iNOS); experiment: Inhibition of LPS-induced NO production in RAW 264.7 macrophages (Griess reaction, measure of iNOS activity); format: cell-based; details: for IC50: means ± SE, n = 3;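 on all read-outs here: cells pretreated with compound for 2 h, then stimulated 24 h with LPS at 500 ng/ml, supernatant nitrite quantified by absorbance at 550 nm against a nitrite standard curve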
sEH = target: T1, sEH (Homo sapiens, UniProt P34913); experiment: sEH inhibitory activity, fluorescence assay with PHOME substrate; format: biochemical; details: for inhibition at 100 µM / Inhibition on sEH at 100 µM (%): 100 µM compound, tested three times; for IC50: PHOME substrate, dose-dependent response curve
T1 sequence (P34913 1-555): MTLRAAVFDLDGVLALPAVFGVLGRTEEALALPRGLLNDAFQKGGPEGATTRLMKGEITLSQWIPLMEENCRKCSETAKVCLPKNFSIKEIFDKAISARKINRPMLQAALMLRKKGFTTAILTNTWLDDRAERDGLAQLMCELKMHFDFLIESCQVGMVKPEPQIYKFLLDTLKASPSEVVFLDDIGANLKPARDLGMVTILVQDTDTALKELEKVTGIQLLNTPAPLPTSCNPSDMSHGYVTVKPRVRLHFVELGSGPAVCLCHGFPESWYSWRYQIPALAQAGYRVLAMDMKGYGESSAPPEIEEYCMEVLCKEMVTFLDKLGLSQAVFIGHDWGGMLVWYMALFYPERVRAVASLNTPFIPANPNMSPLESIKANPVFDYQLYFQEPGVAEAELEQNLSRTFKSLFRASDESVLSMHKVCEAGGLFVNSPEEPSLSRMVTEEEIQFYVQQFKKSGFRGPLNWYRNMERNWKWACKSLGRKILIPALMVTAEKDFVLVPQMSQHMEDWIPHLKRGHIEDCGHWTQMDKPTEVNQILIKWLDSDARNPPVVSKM

[2] = Mus musculus, 50 µM compound, LPS-stimulated RAW264.7 cells, read-out: Inhibition of NO production at 50 µM (%)
[3] = 50 µM compound, LPS-stimulated RAW264.7 cells
[4] = Mus musculus, RAW264.7, LPS-stimulated RAW264.7 cells
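Wherever Cytotoxicity in RAW 264.7 cells (MTT) is given: viability gauged by mitochondrial reductase turning MTT into formazan, optical density read at 570 nm, with untreated control cells set as 100% viability.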

## O=C(/C=C/c1ccc(O)c(O)c1)O[C@@H]1C[C@@](O)(C(=O)O)C[C@@H](O)[C@@H]1O [Compound 1]
RAW 264.7 cells
  Cytotoxicity in RAW 264.7 cells (MTT): did not exhibit significant cytotoxicity
[1]; [2]
  inhibition at 50 µM: 5.7%
sEH
  inhibition at 100 µM: 74.3 ± 3.4%
  IC50: 41.9 ± 1.2 µM

## O=C(/C=C/c1ccc(O)cc1)O[C@@H]1C[C@@](O)(C(=O)O)C[C@@H](O)[C@@H]1O [Compound 2]
RAW 264.7 cells
  Cytotoxicity in RAW 264.7 cells (MTT): did not exhibit significant cytotoxicity
[1]; [2]
  inhibition at 50 µM: 19.7%
sEH
  inhibition at 100 µM: 4.4 ± 3.2%

## COc1cc(/C=C/C(=O)O[C@@H]2C[C@@](O)(C(=O)O)C[C@@H](O)[C@@H]2O)ccc1O [Compound 3]
RAW 264.7 cells
  Cytotoxicity in RAW 264.7 cells (MTT): did not exhibit significant cytotoxicity
[1]; [2]
  inhibition at 50 µM: 26.1%
sEH
  inhibition at 100 µM: 67.1 ± 3.4%
  IC50: 60.7 ± 1.9 µM

## COC(=O)[C@@]1(O)C[C@@H](O)[C@H](O)[C@H](OC(=O)/C=C/c2ccc(O)c(O)c2)C1 [Compound 4]
[1]; [3]
  Inhibition of NO production at 50 µM (%): N.I
sEH
  inhibition at 100 µM: 68.3 ± 3.4%
  IC50: 30.4 ± 0.8 µM

## CCCCOC(=O)[C@@]1(O)C[C@@H](O)[C@H](O)[C@H](OC(=O)/C=C/c2ccc(O)c(O)c2)C1 [Compound 5]
RAW 264.7 cells
  Cytotoxicity in RAW 264.7 cells (MTT): did not exhibit significant cytotoxicity
[1]; [4]
  IC50: 45.3 ± 1.4 µM
[1]; [2]
  inhibition at 50 µM: 53%
sEH
  inhibition at 100 µM: 77.7 ± 2.6%
  IC50: 33.1 ± 0.3 µM

## COC(=O)[C@]1(O)C[C@@H](O)[C@@H](O)[C@H](OC(=O)/C=C/c2ccc(O)c(O)c2)C1 [Compound 6]
[1]; [2]
  inhibition at 50 µM: 1.8%
sEH
  inhibition at 100 µM: 111 ± 1.9%
  IC50: 14.7 ± 0.4 µM

## O=C(C=Cc1ccc(O)c(O)c1)OC1C(O)CC(O)(C(=O)O)CC1O (centres unmarked) [Compound 7]
RAW 264.7 cells
  Cytotoxicity in RAW 264.7 cells (MTT): did not exhibit significant cytotoxicity
[1]; [2]
  inhibition at 50 µM: 10.7%
sEH
  inhibition at 100 µM: 69.2 ± 0.9%
  IC50: 50.8 ± 1.5 µM

## O=C(/C=C\c1ccc(O)cc1)O[C@@H]1C[C@@](O)(C(=O)O)C[C@@H](O)[C@@H]1O [Compound 9]
RAW 264.7 cells
  Cytotoxicity in RAW 264.7 cells (MTT): did not exhibit significant cytotoxicity
[1]; [3]
  Inhibition of NO production at 50 µM (%): N.I
sEH
  inhibition at 100 µM: 32.3 ± 2.7%

## O=C1C[C@@H](c2ccc(O)cc2)Oc2cc(O)ccc21 [Compound 11]
[1]; [2]
  inhibition at 50 µM: 10.8%
sEH
  inhibition at 100 µM: 34.5 ± 2.5%

## O=C1c2c(O)cc(O)cc2O[C@H](c2ccc(O)cc2)[C@H]1O[C@@H]1O[C@H](CO)[C@@H](O)[C@H](O)[C@H]1O [Compound 13]
RAW 264.7 cells
  Cytotoxicity in RAW 264.7 cells (MTT): did not exhibit significant cytotoxicity
[1]; [3]
  Inhibition of NO production at 50 µM (%): N.I
sEH
  inhibition at 100 µM: 22.7 ± 3.9%

## O=c1c(O[C@@H]2O[C@H](CO)[C@@H](O)[C@H](O)[C@H]2O)c(-c2ccc(O)cc2)oc2cc(O)cc(O)c12 [Compound 14]
RAW 264.7 cells
  Cytotoxicity in RAW 264.7 cells (MTT): did not exhibit significant cytotoxicity
[1]; [2]
  inhibition at 50 µM: 9%
sEH
  inhibition at 100 µM: 78 ± 1%
  IC50: 21.3 ± 0.3 µM

## C[C@@H]1O[C@@H](OC[C@H]2O[C@@H](Oc3c(-c4ccc(O)cc4)oc4cc(O)cc(O)c4c3=O)[C@H](O)[C@@H](O)[C@H]2O)[C@H](O)[C@H](O)[C@H]1O [Compound 15]
RAW 264.7 cells
  Cytotoxicity in RAW 264.7 cells (MTT): did not exhibit significant cytotoxicity
[1]; [2]
  inhibition at 50 µM: 3%
sEH
  inhibition at 100 µM: 60.2 ± 0.5%
  IC50: 18.3 ± 0.2 µM

## COc1cc([C@H]2Oc3c(OC)cc(CCCO)cc3[C@@H]2CO[C@@H]2O[C@H](CO)[C@@H](O)[C@H](O)[C@H]2O)ccc1O [Compound 20]
RAW 264.7 cells
  Cytotoxicity in RAW 264.7 cells (MTT): did not exhibit significant cytotoxicity
[1]; [2]
  inhibition at 50 µM: 13.9%
sEH
  Inhibition on sEH at 100 µM (%): N.I

## COc1cc([C@@H]2Oc3c(OC)cc(CCCO)cc3[C@H]2CO)cc(OC)c1O [Compound 21]
RAW 264.7 cells
  Cytotoxicity in RAW 264.7 cells (MTT): did not exhibit significant cytotoxicity
[1]; [2]
  inhibition at 50 µM: 16.2%
sEH
  Inhibition on sEH at 100 µM (%): N.I

## O=C1CC(c2ccc(O)c(O)c2)c2c(O)cc3c(c2O1)CC(O)C(c1ccc(O)c(O)c1)O3 (centres unmarked) [Compound 22]
RAW 264.7 cells
  Cytotoxicity in RAW 264.7 cells (MTT): did not exhibit significant cytotoxicity
[1]; [2]
  inhibition at 50 µM: 18.3%
sEH
  inhibition at 100 µM: 31.9 ± 4.5%

## COc1cc(C(=O)O)cc(OC)c1O [Compound 23]
[1]; [2]
  inhibition at 50 µM: 14.1%
sEH
  inhibition at 100 µM: 10.7 ± 3%

## O=Cc1ccc(O)c(O)c1 [Compound 24]
RAW 264.7 cells
  Cytotoxicity in RAW 264.7 cells (MTT): did not exhibit significant cytotoxicity
[1]; [2]
  inhibition at 50 µM: 22.2%
sEH
  inhibition at 100 µM: 38.6 ± 0.2%

## O=C(O)c1ccc(O)cc1 [Compound 25]
RAW 264.7 cells
  Cytotoxicity in RAW 264.7 cells (MTT): did not exhibit significant cytotoxicity
[1]; [2]
  inhibition at 50 µM: 17%
sEH
  inhibition at 100 µM: 42 ± 3.9%

## COc1cc(C(=O)O)ccc1O [Compound 26]
[1]; [2]
  inhibition at 50 µM: 11.4%
sEH
  inhibition at 100 µM: 21.3 ± 0.2%

## COc1ccc(C(=O)O)cc1O [Compound 27]
RAW 264.7 cells
  Cytotoxicity in RAW 264.7 cells (MTT): did not exhibit significant cytotoxicity
[1]; [2]
  inhibition at 50 µM: 24%
sEH
  inhibition at 100 µM: 17.5 ± 0.2%

## O=C(CO)c1ccc(O)cc1 [Compound 28]
RAW 264.7 cells
  Cytotoxicity in RAW 264.7 cells (MTT): did not exhibit significant cytotoxicity
[1]; [2]
  inhibition at 50 µM: 6.2%
sEH
  inhibition at 100 µM: 22.1 ± 0.9%

## O=C(O)/C=C/c1ccc(O)cc1 [Compound 29]
[1]; [2]
  inhibition at 50 µM: 13.4%
sEH
  inhibition at 100 µM: 39.7 ± 4.4%

## O=C(O)/C=C/c1ccc(O)c(O)c1 [Compound 30]
RAW 264.7 cells
  Cytotoxicity in RAW 264.7 cells (MTT): did not exhibit significant cytotoxicity
[1]; [2]
  inhibition at 50 µM: 21.5%
sEH
  IC50: 21 ± 0.4 µM

## COc1cc(/C=C/C(=O)O)ccc1O [Compound 31]
[1]; [2]
  inhibition at 50 µM: 10.6%
sEH
  inhibition at 100 µM: 43 ± 1.1%

## Oc1ccc(/C=C/c2cc(O)cc(O)c2)cc1 [Compound 32]
RAW 264.7 cells
  Cytotoxicity in RAW 264.7 cells (MTT): did not exhibit significant cytotoxicity
[1]; [4]
  IC50: 30.6 ± 1.8 µM
[1]; [2]
  inhibition at 50 µM: 77.7%
sEH
  IC50: 6.8 ± 0.9 µM

## Oc1ccc(-c2ccc(O)c(O)c2)cc1O [Compound 33]
RAW 264.7 cells
  Cytotoxicity in RAW 264.7 cells (MTT): did not exhibit significant cytotoxicity
[1]; [2]
  inhibition at 50 µM: 3%
sEH
  inhibition at 100 µM: 19.4 ± 0.8%

## OC[C@H]1O[C@@H](OCCc2ccccc2)[C@H](O)[C@@H](O)[C@@H]1O [Compound 34]
RAW 264.7 cells
  Cytotoxicity in RAW 264.7 cells (MTT): did not exhibit significant cytotoxicity
[1]; [2]
  inhibition at 50 µM: 12.8%
sEH
  inhibition at 100 µM: 13.3 ± 0.2%

## OC[C@H]1O[C@@H](OC[C@@H](O)c2ccc(O)cc2)[C@H](O)[C@@H](O)[C@@H]1O [Compound 35]
RAW 264.7 cells
  Cytotoxicity in RAW 264.7 cells (MTT): did not exhibit significant cytotoxicity
[1]; [2]
  inhibition at 50 µM: 15.9%
sEH
  inhibition at 100 µM: 10.5 ± 3%

## CC1OC(OCC2OC(OCCc3ccccc3)C(O)C(O)C2O)C(O)C(O)C1O (centres unmarked) [Compound 36]
RAW 264.7 cells
  Cytotoxicity in RAW 264.7 cells (MTT): did not exhibit significant cytotoxicity
[1]; [2]
  inhibition at 50 µM: 20.9%
sEH
  Inhibition on sEH at 100 µM (%): N.I

## CC/C=C\CCO[C@@H]1O[C@H](CO)[C@@H](O)[C@H](O)[C@H]1O [Compound 37]
RAW 264.7 cells
  Cytotoxicity in RAW 264.7 cells (MTT): did not exhibit significant cytotoxicity
[1]; [2]
  inhibition at 50 µM: 14.5%
sEH
  inhibition at 100 µM: 24.6 ± 3.1%

## C[C@@H]1CC[C@]2(C(=O)O)CC[C@]3(C)C(=CC[C@@H]4[C@@]5(C)C[C@@H](O)[C@@H](O)C(C)(C)[C@@H]5CC[C@]43C)[C@@H]2[C@]1(C)O [Compound 38]
RAW 264.7 cells
  Cytotoxicity in RAW 264.7 cells (MTT): did not exhibit significant cytotoxicity
[1]; [2]
  inhibition at 50 µM: 8.9%
sEH
  inhibition at 100 µM: 39.5 ± 4.1%

## CC[C@H](/C=C/[C@@H](C)[C@H]1CC[C@H]2[C@@H]3CC=C4C[C@@H](O[C@@H]5O[C@H](CO)[C@@H](O)[C@H](O)[C@H]5O)CC[C@]4(C)[C@H]3CC[C@]12C)C(C)C [Compound 39]
RAW 264.7 cells
  Cytotoxicity in RAW 264.7 cells (MTT): did not exhibit significant cytotoxicity
[1]; Mus musculus, RAW264.7, read-out: Inhibition of NO production at 50 µM (%)
  inhibition at 50 µM: 20.3%
sEH
  Inhibition on sEH at 100 µM (%): N.I

## C[C@@H]1C[C@H]2[C@@H]3CCC4=CC(=O)C=C[C@]4(C)[C@@]3(F)[C@@H](O)C[C@]2(C)[C@@]1(O)C(=O)CO [Dexamethasone, reference compound]
[1]; LPS-stimulated RAW264.7 cells
  IC50: 10.5 ± 0.1 µM
[1]; [4]
  IC50: 10.5 ± 0.13 µM
